Tests used:
spleen cells = assay: Cytokine levels in culture supernatants of spleen cells from MCMV-infected mice (ELISA); assay type: in vivo; conditions: BALB/c mice with MCMV infection, GCV compared with Thymosin alpha 1
From the text: Arrow indicates an inducible band. Lane 1, uninfected cells; lane 2, MCMV-infected; lane 3, Thymosin alpha 1 treated; lane 4, MCMV+Thymosin alpha 1 treated. (FIG. 3b) Cytokine production (pg/ml) by DC subsets treated as above. Bars indicate the standard errors. *P<0.05, cytokine production in MCMV-infected DC vs uninfected DC. **P<0.05, Thymosin alpha 1-treated vs untreated DC. (FIG. 3c) Cytokine production in mice during MCMV infection. Cytokine levels (pg/ml) in culture supernatants of spleen cells from mice with MCMV infection and treated for a week with Thymosin alpha 1 or GCV. *P<0.05, treated vs untreated mice. ND, not done.
Viral load (FIG. 4a) and cytokine production (FIG. 4b) in C57BL6, TLR4−/−, TLR9−/− and MyD88−/− mice infected with 5×10^5 PFU of MCMV and treated with 200 μg/kg Tα1 for a week. Virus titers, expressed as log 10, were quantified on MEF cells by standard plaque assay on infected tissues removed a week after infection and treatment. Cytokine (pg/ml) levels in culture supernatants of spleen cells were determined by ELISA assay. Bars indicate the standard errors. *P<0.05, Tα1-treated vs untreated mice. Results are representative of 3 independent experiments.
(§1) BALB/c or C57BL6 mice were infected with 10^5 or 5×10^5 PFU of MCMV, respectively. Virus titers, expressed as log 10, were quantified on MEF cells by standard plaque assay on lung tissues removed 7 days after the infection. Tα1 (200 μg/kg/daily for a week) and/or GCV (40 mg/kg, three times a week) were administered beginning the day of the infection. Cytokine (pg/ml) levels in culture supernatants of spleen cells (7 days) were determined by ELISA assay. Bars indicate the standard errors. *P<0.05, treated vs untreated mice. Results are representative of 3 independent experiments.
Quantification of cytokines by ELISA and ELISPOT assays. The levels of cytokines in the culture supernatants of mitogen-stimulated spleen cells (48 h stimulation with 10 μg/ml ConA) or MCMV-pulsed DC (24 h) were determined by ELISA (R&D Systems and PBL, Biomedical Lab, Milan, Italy). The detection limits (pg/ml) of the assays were <16 for IL-12 p70, <10 for IFN-., <3 for IL-10 and <10 for IFN-a. IFN-.-producing NK cells were enumerated by ELISPOT assay on purified NK (Virus Res. 2003; 98:17-467 25). Results are expressed as the mean number of cytokine-producing cells (±SE) per 10^5 cells, calculated using replicates of serial 2-fold dilutions of cells.

MCMV = MCMV infection in mice, virus titers by standard plaque assay on tissues; assay type: in vivo, BALB/c and C57BL6 mice
Procedure: BALB/c (FIG. 1a) and C57BL6 (FIG. 1b) mice were infected with 1×10^5 or 5×10^5 PFU of MCMV, respectively. Virus titers were quantified on MEF cells by standard plaque assay on tissues removed at different times (FIG. 1a) or a week after infection (FIG. 1b) and expressed as log 10(mean±standard errors, SE). Thymosin alpha 1 (200 μg/kg given for 7 or 14 days) and GCV (40 mg/kg given three times a week) were administered beginning the day of the infection. Controls received the scrambled peptide. Results are representative of 4 independent experiments. Bars indicate the standard errors. *P<0.05, viral load between treated and untreated mice.
as §1
Inbred C57BL6 and BALB/c mice were injected intraperitoneally (i.p.) with 1×10^5 (BALB/c) or 5×10^5 (C57BL6) plaque forming units (PFU) of MCMV. Virus titers were quantified on MEF cells by standard plaque assay on tissues removed a day after treatment. Treatments were as follow: Tα1 ([…]) and PTX3 (1 mg/k/ip) (SIGMA-Tau, Pomezia, Rome, Italy) were given daily for 7 consecutive days beginning the day of the infection. Controls received the scrambled peptide. All organs from uninfected animals were negative viruses. Virus titers are expressed as log 10 (mean±standard errors, SE).
Mice. Wild-type (WT) inbred C57BL6 and BALB/c mice, 8 to 12 weeks old, were purchased from Charles River Breeding Laboratories (Calco, Italy). Pairs of homozygous TLR9-(TLR9−/−), TLR4-(TLR4−/−), and MyD88-(MyD88−/−)-deficient mice (on the C57BL6 background), were bred under specific pathogen-free conditions at the breeding facilities of the University of Perugia, Perugia, Italy. Experiments were performed following protocols approved by the institutional animal committee and in accordance with European Economic Community Council Directive as well as institutional animal care and use guidelines.
Virus, infection and treatments. Stocks of Smith strain MCMV salivary gland extracts were prepared from BALB/c mice and titered in a standard plaque assay on BALB/c murine embryonic fibroblast (MEF) cells (J. Gen. Virol. 2002; 83:2983-2993). Mice were injected intraperitoneally (i.p.) with 1×10^5 (C57BL6) plaque forming units (PFU) of MCMV. Virus titers were quantified on MEF cells by standard plaque assay on tissues removed at different times. Treatments were as follows: Thymosin alpha 1 and the scrambled polypeptide (both from SciClone Pharmaceuticals, San Mateo, CA) were supplied as purified (the endotoxin levels were <0.03 pg/ml, by a standard limulus lysate assay) sterile, lyophilized, acetylated polypeptide. The sequences were as follows: Ac-Ser-Asp-Ala-Ala-Val-Asp-Thr-Ser-Ser-Glu -Ile-Thr-Thr-Lys-Asp-Leu-Lys-Glu-Lys-Lys-Glu-Val-Glu-Glu-Ala-Glu-Asn-O (Tα1) SEQ ID NO:1 and Ac-Ala-Lys-Ser-Asp-Val-Lys-Ala-Glu-Thr-Ser-Ser-Glu-Ile-Asp-Thr-Thr-Glu-Leu -Asp-Glu-Lys-Val-Glu-Val-Lys-Ala-Asn-Glu-OH (scrambled peptide) SEQ ID NO:2. The lyophilized powders were reconstituted in sterile water and 200 μg/kg/i.p. were given daily for 7 or 14 consecutive days beginning the day of the infection. Gancyclovir (GCV) (Cymevene; from Recordati, Milan, Italy) was administered at 40 mg/kg/i.p. three times a week, every other day, beginning 6 h after infection. Controls received the scrambled peptide or the diluent alone.
Plaque assay. Plaque assay was determined on cells grown to subconfluence and incubated with serially diluted virus samples for 2 h at 37° C. (10). […]

Nc1nc(O)c2ncn(COC(CO)CO)c2n1 [GCV, Ganciclovir]
IFN-a, IFN-. and IL-12p70 production (spleen cells): comparable to those obtained with GCV

Ac-Ala-Lys-Ser-Asp-Val-Lys-Ala-Glu-Thr-Ser-Ser-Glu-Ile-Asp-Thr-Thr-Glu-Leu -Asp-Glu-Lys-Val-Glu-Val-Lys-Ala-Asn-Glu-OH (Ac-AKSDVKAETSSEIDTTELDEKVEVKANE-OH) [scrambled peptide]
viral load in different visceral organs (MCMV; 200 μg/kg for 7 days, both susceptible (BALB/c) and resistant (C57BL6) mice): not

PTX3: long pentraxin protein with N-terminal domain and C-terminal domain similar to short pentraxins; from SIGMA-Tau
viral titers in the lung (MCMV; PTX3 alone, 1 mg/k/ip daily for 7 days, BALB/c or C57BL6 mice): decreased the viral titers

Source: patent publication US8337828B2, “Use of thymosin alpha 1, alone or in combination with PTX3 or ganciclovir, for the treatment of cytomegalovirus infection” (priority 2006, dated 2012)
